Patent publication US11479770B2, “Use of p38 inhibitors to reduce expression of DUX4” (Fulcrum Therapeutics, Inc., priority 2017, dated 2022)

Tests used:
[1] = tested on: DUX4 target genes; experiment: RNA-seq profiling of FSHD myotubes; type: cell-based, human; details: 1 μM
Description: The 40 bp single-end reads from Illumina had good quality by checking with FastQC (http://www.bioinformatics.babraham.ac.uk/projects/fastqc/). Reads were mapped to hg19 using TopHat v2.1.1 (Kim et al., 2013) with options as “solexa1.3-quals” mode and “no-novel-juncs.” The gene model for TopHat was created by merging known gene in gtf format with kgXref table. Both known gene and kgXref were downloaded from UCSC table browser in hg19 assembly. The read counts were obtained using featureCounts function from Subread package with strandness option as −r 2. Reads were normalized with DESeq2 (Love et al., 2014).
The 40 bp single-end reads from Illumina had good quality by checking with FastQC (http://www.bioinformatics.babraham.ac.uk/projects/fastqc/). Reads were mapped to hg19 using TopHat v2.1.1. The gene model for TopHat was created by merging knownGene in gtf format with kgXref table. Both known gene and kgXref were downloaded from UCSC table browser in hg19 assembly. The read counts were obtained using feature Counts function from Subread package with strandness option as -r 2. Reads were normalized with DESeq2. […] Calculated standard RPKM expression values. […]
In addition, gene expression was also determined in wild type myotubes treated with DMSO. Three replicates for each condition were analyzed by RNA-seq and genes were clustered by the direction and intensity of change.

[2] = tested on: p38 system (phospho MK2 to total MK2 ratio); experiment: Rat PD: phospho MK2 to total MK2 ratio in trapezius muscle; type: in vivo
Experimental: Approximately 50 mg of muscle tissue was placed on dry ice. Muscle samples were cut, as needed to obtain the 50 mg weight using a clean razor blade per specimen. 50 mg of muscle tissue was placed into a pre-labeled TT1 Covaris bag (Covaris, MA, USA) and kept on dry ice. The TT1 Covaris bag was submerged in liquid nitrogen and the sample was cryofractured in the Covaris cryoPREP (Covaris, MA, USA) on setting “5”. The TT1 bag was rotated 180° and steps 2-a were repeated. The sample was transferred into a pre-weighed/labeled tube and maintained on dry ice until all samples were prepared. Sample weights were recorded. RIPA lysis buffer was prepared (R0278-500ML, Sigma, MO, USA). For 10 ml, two Roche PhosSTOP phosphatase inhibitor tablets and one Roche EDTA-free protease inhibitor tablet were added. To the cryofractured material, 8 μl per mg of RIPA buffer were added to each tube and each tube was vortexed until the lysate was homogeneous. Lysates were maintained on ice until all samples were processed. The lysate was cleared by centrifugation at 13,000 g for 5 minutes at 4° C. The supernatant was transferred to a new tube and snap frozen in liquid nitrogen (setting aside […] for protein assay). To measure the protein content of each sample, a Bradford DC protein assay (5000112, Bio-Rad, CA, USA) was conducted. Samples were diluted 1:20 in PBS for protein assessment.
The homogenized trapezius muscle lysate was assessed using an internally developed Meso Scale Discovery (MSD) multiplexed phospho MK2/total MK2 immunoassay (Meso Scale Diagnostics, MD, USA). For each sample, 50 μL of muscle lysate, equal to 50 μg of protein, was loaded onto the MSD assay. Protein concentrations in muscle lysates were determined by a Bradford DC protein assay as described above. Samples were assessed in duplicate. Muscle samples were incubated on a pre-coated MSD plate overnight at 4° C. while on an orbital shaker (300 rpm) and assessed the following morning.

[3] = tested on: MBD3L2 mRNA (DUX4 downstream gene); experiment: MBD3L2 mRNA expression (qPCR) in FSHD myotubes; type: cell-based, human; details: 1 μM
Experimental: On day 0, the media was changed to differentiation media. Plates were removed from the incubator and the growth medium was aspirated, plates were washed once with PBS, 100 μL, for 96-wells and 1 mL for a 6-well plate, 100 μL, or 2 mL of differentiation medium was added per well, 96- or 6-well respectively. Antisense oligonucleotides or drug were added at the desired concentration, and the plates were put back in the incubator and incubated for 3-4 days.
Cells were removed from the incubator and media aspirated. Cells were quickly lysed following one of the following protocols: for lysis in 96-well plates, direct lysis and one-step RT-Preamp qPCR was performed according to the protocol described below. For each 96-well, a mix containing: 19.5 μL Roche Realtime Ready lysis buffer, 0.25 μL RNAse inhibitor, 0.25 μL DNAseI (from Thermo not the included one in the kit) was prepared. 20 μL of the mix was added to each well, mixed 5 times, and incubated 5 minutes at RT or alternatively shaken vigorously for 15 minutes. Lysis was observed under the microscope. Samples were frozen −80° C. at least for 15 minutes.
1-step RT-Preamplification was used for detection of DUX4 downstream genes, i.e., MBD3L2, ZSCAN4, LEUTX, TRIM43, KHDC1L, and POL2RA-VIC was used as endogenous control. Per 10 μL reaction, the reaction mix included: 2.25 μL of RNA (1:10 dilution lysate), 5 μL of Taqman Pre-Amp Master Mix (2×), 0.25 μL of RT enzyme mix (40×), 2.5 μL of Taqman probe set (0.2×)*. * For pooling the TaqMan Assays, equal volumes of each 20× TaqMan® Gene Expression Assay were used, and up to 100 assays were combined. For example, to pool 50 TaqMan assays, 10 μL of each assay were combined in a microcentrifuge tube. The pooled TaqMan assays were diluted using 1× TE buffer so that each assay was at a final concentration of 0.2×. For the above example, 500 μL of 1× TE buffer was added to the pooled TaqMan assays for a total final volume of 1 mL. The QuantStudio7 protocol was used at 48° C. 15 min, 95° C. 10 min, 10 cycles: 95° C. 15 sec, 60° C. 4 min, and 4° C. infinite Samples were then diluted to 50 μL and continued with the qPCR step. Per 10 μL reaction, the reaction mix included: 2 μL of Preamp dilution, 5 μL of Fast Advanced Taqman Master Mix (2×), 0.5 μL of Taqman probe set (20×), and 2.5 μL of H2O. When multiplexing, the volume was adjusted to 10 μL total. The following program was run on the QuantStudio7: 50° C. for 2 min, 95° C. for 30 sec, 40×, 95° C. for 5 sec, 60° C. for 30 sec, and plates were read as per the manufacturers specifications (Thermo).
Wild type myotubes and mature patient-derived FSHD myotubes that express DUX4 protein were treated with DMSO vehicle control or multiple concentrations of various p38α/β inhibitors with different ranges of isoform and kinome selectivity, including SB239063 (FIG. 4A), VX-702 (FIG. 4B), Pamapimod (FIG. 4C), and TAK-715 (FIG. 4D). After treatment, the control and treated cells were processed for realtime PCR quantification of MBD3L2 mRNA (DUX4 downstream gene) and myogenin (MYOG) mRNA (control) expression.

[4] = tested on: DUX4 dependent target genes; experiment: Predicted reduction of DUX4 dependent target genes in FSHD patient muscle; set-up: species or system human; details: from rat muscle concentrations and in vitro FSHD myotube data
Experimental: P38 system target engagement persisted for at least 12 hours following the single dose of FTX-1821 (FIG. 15). P38 system target engagement in trapezius muscle was maximal when plasma and muscle concentrations of FTX-1821 were greater than 20 ng.mL or ng.g and declined at timepoints when exposures decreased. The muscle concentrations of FTX-1821 achieved in the rat study are predicted to result in >70% reduction at Cmax in DUX4 dependent target genes in FSHD patient muscle biopsies based upon in vitro data in FSHD myotubes (above).

[5] = rat; oral; clinically relevant plasma exposures
Experimental: Male Sprague Dawley rats (6-8 weeks of age) were supplied by Hilltop Lab Animals, Inc. (USA). Following arrival at Wuxi AppTec, animals were assessed for their general health by a member of veterinary staff or other designated personnel. Animals were acclimated for at least 2 days (upon arrival at WuXi AppTec) before commencement of the study. Animals were individually housed during acclimation and throughout the study. The animal room environment was controlled according to facility operation (target conditions: temperature 20 to 26° C., relative humidity 30 to 70%, 12-hour cycle of lights on and off). Lights, temperature and relative humidity are constantly monitored by AmegaView Environmental Monitoring System. […] Water (reverse osmosis) was provided to the animals ad libitum. […] In study #FULTH-20171120 rats were fasted overnight prior to drug administration: rats were allowed free access to water at all times and were fed 4 hours post dosing. For study #FULTH-20171228 rats were allowed ad-libitum access to food and water throughout the study.
Dose volume was determined by measured body weight prior to dosing. […] Feeding condition: overnight fast, food return 4 hours after dosing.
Blood samples for PK: Approximately 100 μl of blood sample was obtained via jugular vein or tail vein at each pre-defined time point. […]

[6] = rat, single oral dose 0.3 mg/kg

Cc1c(F)cc(C(=O)NC2CC2)cc1-c1ccc(C(=O)NCC(C)(C)C)cn1 [FTX-1821]
non-DUX4-regulated genes in total signature ([1]; moderate fold changes): 9/86 | expression of differentially expressed (DUX4 pathway) genes by RNA-seq ([1]; vs DMSO and wild type): normalized | plasma concentration at maximal inhibition of the p38 system in muscle ([2]; rat): greater than 20 ng/mL | plasma and muscle concentrations at maximal p38 system target engagement ([2]; rat trapezius muscle): greater than 20 ng.mL or ng.g | time to significant decrease of phospho MK2 to total MK2 ratio ([2]; rat trapezius, single oral dose 0.3 mg/kg): ≤ 1 h | persistence of p38 system target engagement [2, 6]: at least 12 hours | phospho MK2 to total MK2 ratio in trapezius muscle [2, 6]: significantly decreased | MBD3L2 mRNA in FSHD1 and FSHD2 primary patient myoblast lines ([3]; to levels similar to healthy control lines): reduction | MBD3L2 expression levels in four FSHD patient lines ([3]; FTCE-016, -020, -197, -196 myotubes, to levels similar to healthy controls): reduced | predicted reduction at Cmax in DUX4 dependent target genes in FSHD patient muscle biopsies [4]: > 70% | Muscle to plasma exposure ratios [5]: ≥ 1
